The record followed here is US5070096A, “Quinolinoxy phenylsulphonamides” (Bayer Aktiengesellschaft, priority 1986, dated 1991).

One experiment deals with mouse ear inflammation. Nature of the experiment: Mouse ear inflammation test. The class given is in vivo. The procedure: (§1) The liberation of leukotriene B4 (LTB4) in polymorphonuclear rat leukocytes (PMN) after addition of substances and calcium ionophore was determined by means of reverse phase HPLC according to Sorgeat, P. et al, Proc. Nat. Acad. Sci. 76, 2148-2152 (1979) as a measure of the lipoxygenase inhibition. The in vivo activity of the compounds was determined using the mouse ear inflammation model according to Young, J. M. et al., J. of Investigative Dermatology 82, 367-371 (1984).

A further experiment concerns lipoxygenase. Put plainly: Inhibition of lipoxygenase (liberation of leukotriene B4 in polymorphonuclear rat leukocytes, calcium ionophore, HPLC). The class given is cell-based. The following applies: LTB4 liberation in rat PMN. The procedure: as §1

On to `O=S(=O)(Nc1ccc(Oc2cccc3cccnc23)cc1)c1cccc(C(F)(F)F)c1` [Example 44, N-[4-(quinolin-8-yloxy)phenyl]-3-trifluoromethylbenzenesulphonamide], for which, in the experiment with mouse ear inflammation (100 mg/kg per os), the “Inhibition of inflammation, %” value is on record as 38%.
For the compound `O=S(=O)(Nc1ccc(Oc2ccc3cccnc3c2)cc1)c1ccc(Cl)cc1` [Example 53, N-[4-(quinolin-7-yloxy)phenyl]-4-chlorobenzenesulphonamide], the “IC50 value, inhibition of lipoxygenase” value in the experiment on lipoxygenase is 0.088 µg/mL.
On the same count and under the same terms, the same measure for `O=S(=O)(Nc1ccc(Oc2ccc3cccnc3c2)cc1)c1cccc(C(F)(F)F)c1` [Example 54, N-[4-(quinolin-7-yloxy)phenyl]-3-trifluoromethylbenzenesulphonamide]: 0.17 µg/mL; for `O=S(=O)(Nc1ccc(Oc2ccc3cccnc3c2)cc1)c1ccc(F)cc1` [Example 57, N-[4-(quinolin-7-yloxy)phenyl]-4-fluorobenzenesulphonamide]: 0.033 µg/mL.
Take `Cc1ccnc2c(Oc3ccc(NS(=O)(=O)c4ccc(Cl)cc4)cc3)cccc12` [Example 58, N-[4-(4-methylquinolin-8-yloxy)phenyl]-4-chlorobenzenesulphonamide]: in the experiment on mouse ear inflammation (2 mg/ear topical), the “Inhibition of inflammation, %” value stood at 58%.
As to `O=S(=O)(Nc1ccc(OCc2ccc3ccccc3n2)cc1)c1ccc(Cl)cc1` [Example 73, N-[4-(quinolin-2-yl-methyloxy)phenyl]-4-chlorobenzenesulphonamide], the “IC50 value, inhibition of lipoxygenase” value with lipoxygenase is 0.1 µg/mL.
Same read-out and setting: the same measure for `O=S(=O)(Nc1ccc(OCc2ccc3ccccc3n2)cc1)c1cccc(C(F)(F)F)c1` [Example 74, N-[4-(quinolin-2-yl-methyloxy)phenyl]-3-trifluoromethylbenzenesulphonamide]: 0.1 µg/mL.
Consider `CCCCS(=O)(=O)Nc1ccc(OCc2ccc3ccccc3n2)cc1` [Example 75, N-[4-(quinolin-2-yl-methyloxy)phenyl]butanesulphonamide], for which the “IC50 value, inhibition of lipoxygenase” value in the experiment on lipoxygenase is 0.057 µg/mL. Also, the “Inhibition of inflammation, %” value stood at 39% in the experiment on mouse ear inflammation (2 mg/ear topical) and 46% in the experiment on mouse ear inflammation (100 mg/kg per os).
For the compound `O=S(=O)(CCCCl)Nc1ccc(OCc2ccc3ccccc3n2)cc1` [Example 76, N-[4-(quinolin-2-yl-methyloxy)phenyl]-3-chloropropanesulphonamide], the “IC50 value, inhibition of lipoxygenase” value in the experiment with lipoxygenase was 0.046 µg/mL. Besides, the “Inhibition of inflammation, %” value in the experiment with mouse ear inflammation (100 mg/kg per os) came out at 37%.
Regarding `CCCC(C)S(=O)(=O)Nc1ccc(OCc2ccc3ccccc3n2)cc1` (centres unmarked) [Example 78, N-[4-(quinolin-2-yl-methyloxy)phenyl]-1-methylbutanesulphonamide], in the experiment with lipoxygenase, the “IC50 value, inhibition of lipoxygenase” value came to 0.074 µg/mL. In addition, the “Inhibition of inflammation, %” value with mouse ear inflammation (2 mg/ear topical) is given as 65%.
